Columns and labels:
polarized NHBE cells [1] = assay: Binding and internalization of cationic lipid:pDNA complexes (TOTO-1 label, trypan blue quenching)
Description: Cells were incubated with TOTO-1 or Rh-PE labeled complexes at 37° C. for the times noted in the figure legends. Following incubation, cells were washed 7 times with cold PBS and then fixed in 2% paraformadehyde for 20 min at 4° C. The membrane of the insert was removed and mounted using immuno-mount (Shandon, Pittsburgh, Pa.) containing 2 μg/ml DAPI (Molecular Probes). Bound and internalized complexes were observed under a fluorescence microscope (Olympus, AX-70). To observe only internalized complexes, cells were washed 2 times with cold PBS and then the fluorescence of surface bound complexes was quenched by a 10 min incubation with trypan blue (1 mg/ml; Diagnostic Systems, Inc., Gibbstown, N.J.) on ice. Cells were then washed an additional 5 times with cold PBS, fixed and mounted.
Polarized NHBE cells were cultured using a modified procedure based on the methods described by Yamaya et al., American Journal of Physiology, 265:L170-L177 (1993), Jiang et al., Science, 262:424-427 (1993) and Gray et al., American Journal of Respiratory Cell & Molecular Biology, 14:104-112 (1996). Briefly, first passage NHBE cells were plated at a density of 2.5×10^5 cells/cm^2 onto inserts (Millicell-PCF, 0.4 μm pore size, Millipore) coated with human placental collagen (Sigma). The culture medium was the same as that described above for growing NHBE cells as islands. Cultures were maintained under air-liquid interface conditions starting at day 3 following the initial seeding. Cells were considered ready for use when the trans-epithelial resistance was •1000 Ωcm^2.

polarized NHBE cells [2] = assay: Infection with Ad2βgal-4 after pretreatment, βgal expression; assay type: cell-based, human; conditions: cells treated with the calcium chelator
Description: Polarized NHBE cells were treated with Ca^2+-free medium (GIBCO) for 0.5 h and then rinsed twice with Opti-MEM (GIBCO). […] The cells were then infected by adding 200 μl of Opti-MEM containing Ad2βgal-4 or Ad2EGFP (100 moi) to the apical surface of the cultures, while 1 ml of OptiMEM was added to the outside of the insert. After 1 h, the viral suspension was removed, the cells washed twice with Opti-MEM and then 1 ml of the culture medium was added to the outside of the insert. Two days after infection, cells were assayed for βgal expression.

mouse trachea [3] = assay: Intranasal instillation of Ad2βgal-4, quantitative chemiluminescent βgal assay of trachea; assay type: in vivo
Description: Female BALB/c mice 9-12 weeks of age were purchased from Taconic (Germantown, N.Y.). In some groups, mice were instilled intranasally with 25 μl of a solution containing EGTA (pH 7.5), followed by 25 μl of 5% sucrose in PBS containing Adβgal-4 (2×10^8 IU). In other groups, mice were co-instilled with 25 μl of a solution prepared by mixing equal volumes of a 2× (4×10^8 IU/25 μl) Ad2βgal-4 solution in 10% sucrose with 2×EGTA prior to instillation.
To quantify βgal expression, mice were sacrificed with an intraperitoneal injection of Somlethal (King Pharmaceuticals, Bristol, Tenn.) as described by Kaplan et al (1998), and samples of trachea from individual mice were homogenized in lysis buffer. βgal activity was measured with a commercial kit (Galactolight, Tropix, Bedford, Mass.). Protein concentration in the homogenate was measured using DC reagent (Bio-Rad, Hercules, Calif.). Results are expressed as relative light units (RLU) per milligram of total protein.

mouse trachea [4] = assay: Aerosolized Ad2βgal-4 after intranasal pre-treatment, X-gal staining; assay type: in vivo
Description: Viral aerosols were generated using a MiniHEART low flow jet nebulizer (Vortran, Sacramento, Calif.). The nebulizer was operated at 50 psi with compressed medical grade air at the maximum flow rate (˜2.21 pm). Animals were exposed to the aerosol in a whole-body exposure chamber. Ten ml of an Ad2βgal-4 solution (5×10^10 IU) was aerosolized over approximately one hour. Some mice were pre-treated with 50 μl of dH2O or EGTA solution by intranasal instillation 0, 15, 30, or 60 min before aerosolization, while others received no treatment prior to exposure to aerosol. X-gal staining was performed 3 days post aerosolization.
Cytochemical localization of Ogal expression in the trachea was observed using 5-bromo-4-chloro-3-indolyl-β-D-galactopyranoside (X-gal; Sigma). In brief, cannulated mouse lungs were fixed for 10 min by infusion of a fixing solution (2% paraformaldehyde and 0.2% glutaraldehyde in PBS). The lungs were then rinsed twice with 50 mM glycine in PBS, filled with X-gal solution, and stained overnight. Staining was stopped by transfering the samples into the fixing solution.

[5] = tested on: columnar epithelial cells in mouse trachea; assay: Light and electron microscopy of trachea; assay type: in vivo
Text: Tracheas stained with X-gal were removed from the fixing solution and processed for light and electron microscopy using standard procedures. Briefly, the tissues were washed with PBS, dried in alcohols, embedded in glycol methacrylate (GMA) and stained with nuclear fast red. The Ogal-stained cells were identified by light microscopy. For electron microscopy, the fixed tissues were washed three times in Sabatini's solution (1×PBS containing 6.8% sucrose), and postfixed with 1% osmium tetroxide in 0.1 M cacodylate buffer (pH7.4) for an hour, followed by three washes with Sabatini's solution. The samples were then dehydrated with a graded series of alcohols (30, 50, 75, 90 and 100 % for 15 min each), followed by treatments with propylene oxide (15 min), a 1:1 Epon-propylene oxide mix (1 h), and three incubations in pure Epon (3 h, 3 h and overnight). Polymerization was at 64° C. overnight. After embedding, ultrathin sections were cut (MT2 Sorvall ultramicrotome) and stained with lead citrate and uranyl acetate and examined with a JEOL 100CX transmission electron microscope (TEM).

[6] = tested on: epithelial tight junctions of mouse trachea; assay: Lanthanum precipitation in trachea under TEM; assay type: in vivo; conditions: treated animals vs control animals
Description: Openings in tight junctions were visualized using a method described previously (Shaklai and Tavassoli, 1977; and Schneeberger and McCormack, 1984) with modifications. Briefly, mouse trachea was fixed with 2.5% glutaraldehyde, 1% lanthanum nitrate in 0.1 M cacodylate buffer, pH 7.4, for 4 to 6 h at […]. The trachea was then rinsed and washed 16 h with three changes of ice-cold 6.8% sucrose in 0.1 M cacodylate buffer ˜pH 7.4). The samples were postfixed in 1% OsO4 in 0.1 M cacodylate buffer containing 1% lanthanum nitrate pH 7.4 at 4° C. for 1 h, and dehydrated and then embedded in epoxy resin.

AdV = assay: Effect on AdV titer assessed on 293 cells; conditions: concentrations up to 0.4 M
Description: To rule out the possibility that EGTA might enhance the activity of AdV, the effects of EGTA on AdV titer were assessed on 293 cells.

O=C(O)CN(CCOCCOCCN(CC(=O)O)CC(=O)O)CC(=O)O [EGTA, Ethylene glycol bis(B-aminoethyl ether) N,N,N′,N′-tetraacetic acid]
Effects of Tight Junction Disrupting Compounds on Cationic Amphiphile: DNA Complex Binding (polarized NHBE cells [1]; Table 1, grades Very Effective / Mildly Effective): Very Effective
complex internalization (polarized NHBE cells [1]; fully polarized NHBE cells pretreated before incubation with complexes): increased dramatically
toxicity (polarized NHBE cells [1]; pretreatment of fully polarized NHBE cells): minimal toxicity
increasing the amount of internalized complex, compared with other reagents known to open tight junctions (polarized NHBE cells [1]; vs EDTA, poly-lysine, sodium caprate, decanoylcarnitine, sodium glycocholate): most effective
increase in expression from an AdV infection (polarized NHBE cells [2]): ~50 fold
time between treatment and AdV instillation giving maximal enhancement of β-gal expression (mouse trachea [3]; 0.1M and 0.4M, FIG. 5B): 0.5 h
tracheal gene expression relative to co-instilling AdV with 0.05M EGTA (mouse trachea [3]; pre-treated with 0.05 and 0.1M, FIG. 5A): > 6 fold
X-gal stained cells in trachea after AdV aerosol (mouse trachea [4]; 50 μl of 0.1 M intranasal 30 min prior to aerosol): significant number of positively stained cells
X-gal stained cells in trachea after AdV aerosol (mouse trachea [4]; pretreated 1 h prior to aerosol): no significant increase
airway epithelial cell damage by EM ([5]; 0.4M): some damaged airway epithelial cells were observed
cells transduced by AdV in cartilaginous airways ([5]; treated prior to AdV instillation): localized to columnar epithelial cells
penetration of lanthanum precipitates through epithelial tight junctions [6]: penetrated through the epithelial tight junctions
effect on virus activity (AdV): no measurable effect
